According to paper PMC12756790, “Site-Selective Protein Modification via Peptide-Directed Proximity Catalysis” (ACS Omega, 2025):

Legend:
insulin [1] = target: T1, insulin (Homo sapiens, UniProt P01308); assay: QCM-D binding of gold-tethered peptides to insulin; conditions: predicted from QCM-D of model peptides, 'noting the assumptions detailed above'
From the text: To predict whether the insulin-binding capability of P1 would be maintained after the introduction of a pyridinium oxime catalyst, peptides bearing either an N- or C-terminal cysteine (C-P1 and P1-C, respectively) were first synthesized and tethered to a gold sensor for quartz crystal microbalance with dissipation monitoring (QCM-D) analysis. It is important to note that these model peptides lacked the positive charge that would be introduced upon installation of a pyridinium oxime, and so evidence of binding was expected to be indicative of binding potential, rather than providing an exact measure of binding affinity.
Sensor preparation: QCM-D gold sensors (QSX 301, Biolin Scientific) were cleaned by UV–ozone treatment (30 min), followed by sonication in a 2% Hellmanex III solution (5 min) and then sonication in ultrapure water (5 min). Sensors were then dried with N2 […]
Binding studies: Following cleaning, each sensor was installed into the flow modules of a Q-Sense E4, QFM 401 system by Biolin Scientific. Each chamber was then filled with Milli-Q water at a flow rate of 100 μL/min controlled by a four-channel peristaltic pump. To achieve a stable baseline, PBS was left to flow through the modules at 100 μL/min until the drift in frequency was <±1 Hz over 10 min. […]

insulin [2] = target: T1, insulin; assay: peptide-directed proximity catalysis labeling of insulin, intact protein LC-MS; assay type: biochemical; conditions: control (scrambled peptide, peptide lacking PyOx, or PyOx-azide) with biotin-NASA 3b, pH 7.4, 2 h, 22 °C
Procedure: With these reagents in hand, we attempted peptide-directed proximity catalysis on insulin. Initial experiments were performed in pH 7.4 phosphate buffer at a concentration of 50 μM, which was above the K d calculated for peptide binding (Figure ). Varying equivalents of pyridinium oxime peptide P1-(PyOx) 1 (0, 1.25, 2.5, 5, or 10 equiv wrt protein) were then added, followed by the addition of biotin–NASA 3b (20 equiv wrt protein). […] After 2 h at room temperature (22 °C), reactions were analyzed by intact protein liquid chromatography mass spectrometry (LC-MS). […] Further controls using either a scrambled peptide (FYRTGF-(PyOx)1), peptide lacking the pyridinium oxime P1, or pyridinium oxime-azide 2 also gave no labeling, providing further evidence that labeling was mediated by a specific protein–peptide binding interaction, and catalyzed by the pyridinium oxime motif.
General protocol: A solution of PyOx-peptide probe ([…] in pH 7.4 PBS, 25 µL, 7.4 PBS, 25 µL, 1.25 nmol; Final concentration 25 µM ) and shaken for 30 min . A solution of biotin-NASA 3b (25 mM in DMSO, 1 µL, 25 nmol; Final concentration 490 µM) was then added and the mixture shaken at room temperature for 2 h. Samples were then analysed by LC-MS without purification.
Figure S5: Deconvoluted mass spectra from general labelling protocol showing modified and unmodified insulin. […]

RNase S = test system: RNase S; design: method as in Kim and Raines, Protein Sci. 1993 (ref 26); conditions: S-peptide cleaved from N-terminal domain of RNase A; ref Kim and Raines, Protein Sci. 1993 (ref 26); cited from earlier work

T1 sequence (P01308 25-54 limits assumed): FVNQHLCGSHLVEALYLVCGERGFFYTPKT
T1 sequence (P01308 90-110 limits assumed): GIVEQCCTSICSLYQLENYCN

Substance	predicted affinity for target protein (insulin [1])	insulin labeling, controls (insulin [2])	binding affinity to remaining parent protein RNase S (RNase S)
RGFFYT [P1]	μM affinity	no labeling	–
FYRTGF-(PyOx)1 [scrambled peptide control]	–	no labeling	–
KETAAAKFERQHMDSSTSA [P2]	–	–	nM binding affinty
